# Data published in publication PMC9120017, “Inhibition mechanism of the chloride channel TMEM16A by the pore blocker 1PBC” (Nature Communications, 2022).
# Where two headings read alike, the source gives them in different places.
# Molecular target: T1, mouse TMEM16A mutant G558P (Mus musculus, UniProt Q8BHY3, G558P)
# T1 construct: expressed in transfected cells; host or cells: HEK293T
# T1 sequence (Q8BHY3 1-960 G558P): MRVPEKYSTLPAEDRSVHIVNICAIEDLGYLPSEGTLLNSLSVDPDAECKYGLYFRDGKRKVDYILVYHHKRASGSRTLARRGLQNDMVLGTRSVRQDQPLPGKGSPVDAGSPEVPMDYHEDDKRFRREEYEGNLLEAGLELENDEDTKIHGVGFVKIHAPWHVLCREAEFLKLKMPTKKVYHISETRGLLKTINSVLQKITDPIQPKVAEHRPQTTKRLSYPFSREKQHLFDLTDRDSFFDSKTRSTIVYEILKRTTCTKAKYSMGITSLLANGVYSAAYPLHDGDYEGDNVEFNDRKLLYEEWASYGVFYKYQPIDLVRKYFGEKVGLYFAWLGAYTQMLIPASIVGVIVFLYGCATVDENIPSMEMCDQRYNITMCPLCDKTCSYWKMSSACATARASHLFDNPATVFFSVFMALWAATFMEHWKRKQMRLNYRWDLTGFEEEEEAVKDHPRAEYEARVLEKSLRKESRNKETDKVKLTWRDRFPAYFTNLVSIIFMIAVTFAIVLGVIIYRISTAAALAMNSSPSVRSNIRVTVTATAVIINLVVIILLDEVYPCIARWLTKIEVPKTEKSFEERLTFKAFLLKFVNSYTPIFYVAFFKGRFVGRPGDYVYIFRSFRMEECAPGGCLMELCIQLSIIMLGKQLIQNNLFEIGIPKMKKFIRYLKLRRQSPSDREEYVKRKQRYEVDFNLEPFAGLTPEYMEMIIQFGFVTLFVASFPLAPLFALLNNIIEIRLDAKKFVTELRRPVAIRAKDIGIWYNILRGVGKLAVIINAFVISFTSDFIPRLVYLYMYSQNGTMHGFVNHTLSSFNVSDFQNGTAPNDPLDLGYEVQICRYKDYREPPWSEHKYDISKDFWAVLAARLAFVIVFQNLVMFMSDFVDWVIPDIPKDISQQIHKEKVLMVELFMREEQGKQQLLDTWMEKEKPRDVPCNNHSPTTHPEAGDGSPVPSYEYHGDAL
# Assay: Inside-out patch recording of 1PBC block, mutant G558P
# Type: cell-based
# Details: for remaining activity at 1 µM: 1PBC conc 1; for remaining activity at 1 µM / remaining activity at 3 µM / remaining activity at 10 µM / remaining activity at 30 µM / remaining activity at 100 µM: read-out: relative current in 1PBC (avr); for remaining activity at 3 µM: 1PBC conc 3; for remaining activity at 10 µM: 1PBC conc 10; for remaining activity at 30 µM: 1PBC conc 30; for remaining activity at 100 µM: 1PBC conc 100
# Procedure: HEK293T cells (ATCC CRL-1573) were maintained in Dulbecco’s modified Eagle’s medium (DMEM; Sigma-Aldrich) supplemented with 10 U ml^−1 penicillin, 0.1 mg ml^−1 streptomycin (Sigma-Aldrich), 2 mM L-glutamine (Sigma-Aldrich), and 10% FBS (Sigma-Aldrich) in a humidified atmosphere containing 5% CO2 at 37 °C. HEK293S GnTI^− cells (ATCC CRL-3022) were maintained in HyClone HyCell TransFx-H medium (GE Healthcare) supplemented with 10 U ml^−1 penicillin, 0.1 mg ml^−1 streptomycin, 4 mM L-glutamine, 0.15% poloxamer 188 (Sigma-Aldrich), and 1% FBS in an atmosphere containing 5% CO2 at 185 rpm at 37 °C. The ac splice variant of mouse TMEM16A (UniProt ID: Q8BHY3), mouse TMEM16B (UniProt ID: Q8CFW1), or mouse TMEM16F (UniProt ID: Q6P9J9) bearing a 3C cleavage site, a Venus YFP, a Myc tag, and a Streptavidin-binding peptide (SBP) downstream of the open reading frame in a modified pcDNA3.1 vector (Invitrogen) were used as described previously[21],[31]. Mutations were introduced using a modified QuikChange method[58] and were verified by sequencing.
# HEK293T cells were transfected with 3–4 μg DNA per 6 cm Petri dish using the calcium phosphate co-precipitation method and were used within 24–96 h after transfection. Recordings were performed on inside-out patches excised from HEK293T cells expressing the construct of interest. Patch pipettes were pulled from borosilicate glass capillaries (O.D. 1.5 mm, I.D. 0.86 mm, Sutter Instrument) and were fire-polished with a microforge (Narishige) before use. Pipette resistance was typically 3–8 MΩ when filled with the recording solutions detailed below. Seal resistance was typically 4 GΩ or higher. Voltage-clamp recordings were made using Axopatch 200B, Digidata 1550, and Clampex 10.7 (Molecular Devices). Analog signals were filtered with the in-built 4-pole Bessel filter at 10 kHz and were digitized at 20 kHz. Solution exchange was achieved using a gravity-fed system through a theta glass pipette mounted on an ultra-fast piezo-driven stepper (Siskiyou). […] All recordings were performed at 20 °C.
# A symmetrical ionic condition was used throughout. Stock solution with Ca^2+-EGTA contained 150 mM NaCl, 5.99 mM Ca(OH)2, 5 mM EGTA, and 10 mM HEPES at pH 7.40. Stock solution with EGTA contained 150 mM NaCl, 5 mM EGTA, and 10 mM HEPES at pH 7.40. Free Ca^2+ concentrations were adjusted by mixing the stock solutions at the required ratios calculated using the WEBMAXC program (http://web.stanford.edu/~cpatton/webmaxcS.htm). Patch pipettes were filled with the stock solution with Ca^2+-EGTA, which has a free Ca^2+ concentration of 1 mM. 1PBC (ChemBridge) stock was reconstituted in anhydrous DMSO (Sigma-Aldrich) at 100 mM and stored at −20 °C. Working solutions with 1PBC were prepared by serial dilution. Unless otherwise stated, experiments were performed at a saturating Ca^2+ concentration as shown in Supplementary Table 1 and the primary data were corrected for current rundown as described previously[21],[25].
# Concentration-response relations, obtained from the ratio of the I-V plots before and after the application of the blocker, were fitted to the Hill equation,1 I/Imax=1/1+IC50/[blocker]^h where I/Imax is the normalized current responses, IC50 defines the concentration at which inhibition is at its half-maximum, and h is the Hill coefficient.
smiles,measurement,setting,value
N#Cc1c(C(F)(F)F)cc(O)n2c1nc1ccccc12 [1PBC],IC50,"0 mV, 15 µM Ca2+",6.23 µM
same,remaining activity at 1 µM,0 mV,83.9%
same,remaining activity at 3 µM,0 mV,66.6%
same,remaining activity at 10 µM,0 mV,39.1%
same,remaining activity at 30 µM,0 mV,18.8%
same,remaining activity at 100 µM,0 mV,7.07%
same,I/Imax_+80mV,1 μM 1PBC,0.7511
same,I/Imax_-80mV,"1 μM 1PBC, -80 mV",0.9508
same,I/Imax_+80mV,3 μM 1PBC,0.5097
same,I/Imax_-80mV,"3 μM 1PBC, -80 mV",0.8567
same,I/Imax_+80mV,10 μM 1PBC,0.2409
same,I/Imax_-80mV,"10 μM 1PBC, -80 mV",0.6177
same,Effect of mutation G558P on block by 1PBC,15 µM Ca2+,did not interfere with block
same,I/Imax_+80mV,30 μM 1PBC,0.1115
same,I/Imax_-80mV,"30 μM 1PBC, -80 mV",0.3696
same,I/Imax_+80mV,100 μM 1PBC,0.03071
same,I/Imax_-80mV,"100 μM 1PBC, -80 mV",0.1483
same,IC50,"20 mV, 15 µM Ca2+",4.87 µM
same,remaining activity at 1 µM,20 mV,81.1%
same,remaining activity at 3 µM,20 mV,60.9%
same,remaining activity at 10 µM,20 mV,34%
same,remaining activity at 30 µM,20 mV,15.5%
same,remaining activity at 100 µM,20 mV,5.33%
same,IC50,"40 mV, 15 µM Ca2+",3.94 µM
same,remaining activity at 1 µM,40 mV,78.3%
same,remaining activity at 3 µM,40 mV,56.7%
same,remaining activity at 10 µM,40 mV,28.5%
same,remaining activity at 30 µM,40 mV,13.4%
same,remaining activity at 100 µM,40 mV,4.84%
same,IC50,"60 mV, 15 µM Ca2+",3.4 µM
same,remaining activity at 1 µM,60 mV,75.9%
same,remaining activity at 3 µM,60 mV,52.9%
same,remaining activity at 10 µM,60 mV,26.1%
same,remaining activity at 30 µM,60 mV,12%
same,remaining activity at 100 µM,60 mV,3.75%
same,IC50,"80 mV, 15 µM Ca2+",3.14 µM
same,remaining activity at 1 µM,80 mV,75.1%
same,remaining activity at 3 µM,80 mV,51%
same,remaining activity at 10 µM,80 mV,24.1%
same,remaining activity at 30 µM,80 mV,11.2%
same,remaining activity at 100 µM,80 mV,3.07%
same,IC50,"100 mV, 15 µM Ca2+",3.03 µM
same,remaining activity at 1 µM,100 mV,75.6%
same,remaining activity at 3 µM,100 mV,50.3%
same,remaining activity at 10 µM,100 mV,22.1%
same,remaining activity at 30 µM,100 mV,10.7%
same,remaining activity at 100 µM,100 mV,2.38%
same,IC50,"120 mV, 15 µM Ca2+",3.26 µM
same,remaining activity at 1 µM,120 mV,77.2%
same,remaining activity at 3 µM,120 mV,52.2%
same,remaining activity at 10 µM,120 mV,23.4%
same,remaining activity at 30 µM,120 mV,10.7%
same,remaining activity at 100 µM,120 mV,2.42%
same,IC50,"140 mV, 15 µM Ca2+",3.86 µM
same,remaining activity at 1 µM,140 mV,81.4%
same,remaining activity at 3 µM,140 mV,57%
same,remaining activity at 10 µM,140 mV,25.2%
same,remaining activity at 30 µM,140 mV,12%
same,remaining activity at 100 µM,140 mV,3.17%
same,IC50,"-20 mV, 15 µM Ca2+",7.94 µM
same,remaining activity at 1 µM,-20 mV,86.7%
same,remaining activity at 3 µM,-20 mV,72.3%
same,remaining activity at 10 µM,-20 mV,44.1%
same,remaining activity at 30 µM,-20 mV,22.2%
same,remaining activity at 100 µM,-20 mV,8.82%
same,IC50,"-40 mV, 15 µM Ca2+",10.4 µM
same,remaining activity at 1 µM,-40 mV,89.5%
same,remaining activity at 3 µM,-40 mV,77.5%
same,remaining activity at 10 µM,-40 mV,50.6%
same,remaining activity at 30 µM,-40 mV,26.7%
same,remaining activity at 100 µM,-40 mV,9.6%
same,IC50,"-60 mV, 15 µM Ca2+",13.4 µM
same,remaining activity at 1 µM,-60 mV,92.1%
same,remaining activity at 3 µM,-60 mV,80.7%
same,remaining activity at 10 µM,-60 mV,56.7%
same,remaining activity at 30 µM,-60 mV,32.1%
same,remaining activity at 100 µM,-60 mV,12.3%
same,IC50,"-80 mV, 15 µM Ca2+",17.1 µM
same,remaining activity at 1 µM,-80 mV,95.1%
same,remaining activity at 3 µM,-80 mV,85.7%
same,remaining activity at 10 µM,-80 mV,61.8%
same,remaining activity at 30 µM,-80 mV,37%
same,remaining activity at 100 µM,-80 mV,14.8%
same,IC50,"-100 mV, 15 µM Ca2+",21.1 µM
same,remaining activity at 1 µM,-100 mV,96.1%
same,remaining activity at 3 µM,-100 mV,88.1%
same,remaining activity at 10 µM,-100 mV,66.8%
same,remaining activity at 30 µM,-100 mV,41.5%
same,remaining activity at 100 µM,-100 mV,17.8%
same,IC50,"-120 mV, 15 µM Ca2+",25.4 µM
same,remaining activity at 1 µM,-120 mV,98.5%
same,remaining activity at 3 µM,-120 mV,90.8%
same,remaining activity at 10 µM,-120 mV,71.2%
same,remaining activity at 30 µM,-120 mV,45.8%
same,remaining activity at 100 µM,-120 mV,19.8%
same,IC50,"-140 mV, 15 µM Ca2+",30 µM
same,remaining activity at 1 µM,-140 mV,100%
same,remaining activity at 3 µM,-140 mV,92.8%
same,remaining activity at 10 µM,-140 mV,74.7%
same,remaining activity at 30 µM,-140 mV,49.7%
same,remaining activity at 100 µM,-140 mV,22.2%
same,IC50,"G558P, V 0 mV",6.23 µM
same,IC50,"G558P, V 20 mV",4.87 µM
same,IC50,"G558P, V 40 mV",3.94 µM
same,IC50,"G558P, V 60 mV",3.4 µM
same,IC50,"G558P, V 80 mV",3.14 µM
same,IC50,"G558P, V 100 mV",3.03 µM
same,IC50,"G558P, V 120 mV",3.26 µM
same,IC50,"G558P, V 140 mV",3.86 µM
same,IC50,"G558P, V -20 mV",7.94 µM
same,IC50,"G558P, V -40 mV",10.4 µM
same,IC50,"G558P, V -60 mV",13.4 µM
same,IC50,"G558P, V -80 mV",17.1 µM
same,IC50,"G558P, V -100 mV",21.1 µM
same,IC50,"G558P, V -120 mV",25.4 µM
same,IC50,"G558P, V -140 mV",30 µM
